Values quoted from earlier work in patent publication US6417349B1, “Water-soluble extract of asiaticoside and madecassoside from Centella asiatica and isolating method thereof” (priority 1997, dated 2002).

Conditions: prior-art components

Structure (SMILES)	solubility in water
C[C@H]1[C@H](C)CC[C@]2(C(=O)O)CC[C@]3(C)C(=CC[C@@H]4[C@@]5(C)C[C@@H](O)[C@H](O)[C@@](C)(CO)[C@@H]5CC[C@]43C)[C@H]12 [asiatic acid]	water-insoluble
CC1CCC2(C(=O)O)CCC3(C)C(=CCC4C5(C)CC(O)C(O)C(C)(C)C5C(O)CC43C)C2C1C (stereo not drawn) [madasiatic acid]	water-insoluble
C[C@H]1[C@H](C)CC[C@]2(C(=O)O)CC[C@]3(C)C(=CC[C@@H]4[C@@]5(C)C[C@@H](O)[C@H](O)[C@@](C)(CO)[C@@H]5[C@H](O)C[C@]43C)[C@H]12 [madecassic acid]	water-insoluble
